One experiment relates to Alternaria solani. The format is cell-based.
The subject of another experiment is Botrytis cinerea. It counts as cell-based.
Experiment [1] has as its system Leptosphaeria nodorum. Nature of the experiment: MIC serial dilution test, Leptosphaeria nodorum (LEPTNO). The format is cell-based.
A further experiment deals with Phytophthora infestans. The format is cell-based. Conditions: total inhibition of mycelial growth; V8 nutrient solution; 6-12 days incubation, 18-25° C.; visual inspection.
The test system of experiment [2] is Magnaporthe grisea f. sp. oryzae. The format is cell-based. Conditions: total inhibition of mycelial growth; V8 nutrient solution; 6-12 days incubation, 18-25° C.; visual inspection.
The test system of a further experiment is Pyrenophora teres. It counts as cell-based.
The subject of another experiment is Rhizoctonia solani. It counts as cell-based.
The test system of experiment [3] is Erysiphe graminis DC. f.sp. tritici E. Marchal. Conditions: in vivo.
Experiment [4] relates to Leptosphaeria nodorum. As to the kind of experiment: Greenhouse test, Wheat Septoria nodorum (WSN). Conditions: Foliar application, 2 day residual (inoculation 2 days after application).
A further experiment deals with Puccinia recondita. Conditions: in vivo.
The mark [5] stands for this setting: […], V8 nutrient solution, 6-12 days incubation, 18-25° C., visual inspection.
[6] abbreviates: total inhibition of mycelial growth, V8 nutrient solution, 6-12 days incubation, 18-25° C., visual inspection.

The structures appear in SMILES notation. ≈ marks a conversion by molar mass, not a printed value. Where “and” joins values, the source holds several entries; their conditions need not be identical. Equal values may be shown once. Read-outs that look alike come from different tables or passages of the source.

For the molecule `Fc1cc(F)c(-c2c(Cl)nc3ncnn3c2N2CCC(F)CC2)c(F)c1` [Example 1, 5-chloro-7-(4-fluoropiperid-1-yl)-6-(2,4,6-trifluorophenyl)-1,2,4-triazolo[1,5a]pyrimidine], the “MIC (Minimum Inhibitory Concentration) ALTESO” value in the experiment with Alternaria solani (setting [5]) was 200 µg/mL (≈ 0.518 mM). Besides, the “MIC (Minimum Inhibitory Concentration) BOTRCI” value against Botrytis cinerea (setting [5]) stood at 3130 µg/mL (≈ 8.11 mM). For the same molecule, the “MIC (Minimum Inhibitory Concentration) LEPTNO” value in the experiment with Leptosphaeria nodorum [1] (setting [6]) worked out at 12500 µg/mL (≈ 32.4 mM). The “MIC (Minimum Inhibitory Concentration) PHYTIN” value with Phytophthora infestans amounted to 50000 µg/mL (≈ 130 mM). Further, the “MIC (Minimum Inhibitory Concentration) PYRIOR” value in experiment [2] stood at 1560 µg/mL (≈ 4.04 mM). Also, the “MIC (Minimum Inhibitory Concentration) PYRNTE” value against Pyrenophora teres was 1560 µg/mL (≈ 4.04 mM). In addition, in the experiment with Rhizoctonia solani (setting [5]), the “MIC (Minimum Inhibitory Concentration) RHIZSO” value was determined as 12500 µg/mL (≈ 32.4 mM). Besides, in experiment [3], the “Disease control (% efficacy) WPM 2 da R” value was 88% and 100%. The “Disease control (% efficacy) WSN 2 da R” value in the experiment on Leptosphaeria nodorum [4] (25 ppm) is listed as 54%; in the experiment on Leptosphaeria nodorum [4] (100 ppm), 100%.

For the molecule `FCC1CCN(c2c(-c3c(F)cccc3Cl)c(Cl)nc3ncnn23)CC1` [Example 2, 5-chloro-7-(4-fluoromethylpiperid-1-yl)-6-(2-chloro-6-fluorophenyl)-1,2,4-triazolo[1,5a]pyrimidine], the “MIC (Minimum Inhibitory Concentration) ALTESO” value in the experiment on Alternaria solani (setting [5]) was 390 µg/mL (≈ 0.979 mM). Also, the “MIC (Minimum Inhibitory Concentration) BOTRCI” value in the experiment with Botrytis cinerea (setting [5]) was 3130 µg/mL (≈ 7.86 mM). In the experiment with Leptosphaeria nodorum [1] (setting [6]), the “MIC (Minimum Inhibitory Concentration) LEPTNO” value was more than 100000 µg/mL. Moreover, the “MIC (Minimum Inhibitory Concentration) PHYTIN” value against Phytophthora infestans was more than 100000 µg/mL. Further, the “MIC (Minimum Inhibitory Concentration) PYRIOR” value in [2] came out at 780 µg/mL (≈ 1.96 mM). For the same molecule, the “MIC (Minimum Inhibitory Concentration) PYRNTE” value against Pyrenophora teres (setting [5]) was determined as 3130 µg/mL (≈ 7.86 mM). Moreover, the “MIC (Minimum Inhibitory Concentration) RHIZSO” value against Rhizoctonia solani (setting [5]) is more than 100000 µg/mL. Also, the “Disease control (% efficacy) WLR 2 da R” value with Puccinia recondita was 100%. Further, the “Disease control (% efficacy) WSN 2 da R” value is reported as 17% in the experiment with Leptosphaeria nodorum [4] (25 ppm) and 83% in the experiment on Leptosphaeria nodorum [4] (100 ppm).

As for `Fc1cccc(Cl)c1-c1c(Cl)nc2ncnn2c1N1CCCC(F)C1` (stereo not drawn) [Example 3, 5-chloro-6-(2-chloro-6-fluorophenyl)-7-N-(3-fluoropiperid-1-yl)-[1,2,4]triazolo[1,5-a]pyrimidine], the “MIC (Minimum Inhibitory Concentration) ALTESO” value in the experiment with Alternaria solani came out at 6250 µg/mL (≈ 16.3 mM). For the same molecule, in the experiment with Botrytis cinerea (setting [5]), the “MIC (Minimum Inhibitory Concentration) BOTRCI” value came out at 12500 µg/mL (≈ 32.5 mM). For the same molecule, the “MIC (Minimum Inhibitory Concentration) LEPTNO” value in the experiment on Leptosphaeria nodorum [1] (setting [6]) was 50000 µg/mL (≈ 130 mM). For the same molecule, the “MIC (Minimum Inhibitory Concentration) PHYTIN” value against Phytophthora infestans is more than 100000 µg/mL. Further, the “MIC (Minimum Inhibitory Concentration) PYRIOR” value in experiment [2] was 6250 µg/mL (≈ 16.3 mM). In the experiment on Pyrenophora teres, the “MIC (Minimum Inhibitory Concentration) PYRNTE” value stood at 6250 µg/mL (≈ 16.3 mM). For the same molecule, the “MIC (Minimum Inhibitory Concentration) RHIZSO” value in the experiment on Rhizoctonia solani (setting [5]) came out at 50000 µg/mL (≈ 130 mM). The “Disease control (% efficacy) WSN 2 da R” value with Leptosphaeria nodorum [4] (25 ppm) was 0%; with Leptosphaeria nodorum [4] (100 ppm), 92%.

As for `Fc1c(F)c(F)c(-c2c(Cl)nc3ncnn3c2N2CCCC(F)C2)c(F)c1F` (stereo not drawn) [Example 4, 5-chloro-7-N-(3-fluoropiperid-1-yl)-6-(pentafluorophenyl)-[1,2,4]triazolo[1,5-a]pyrimidine], in the experiment with Alternaria solani (setting [5]), the “MIC (Minimum Inhibitory Concentration) ALTESO” value was determined as 3130 µg/mL (≈ 7.42 mM). Also, the “MIC (Minimum Inhibitory Concentration) BOTRCI” value against Botrytis cinerea (setting [5]) is 12500 µg/mL (≈ 29.6 mM). In the experiment with Leptosphaeria nodorum [1] (setting [6]), the “MIC (Minimum Inhibitory Concentration) LEPTNO” value amounted to 50000 µg/mL (≈ 119 mM). The “MIC (Minimum Inhibitory Concentration) PHYTIN” value against Phytophthora infestans stood at 100000 µg/mL (≈ 237 mM). In experiment [2], the “MIC (Minimum Inhibitory Concentration) PYRIOR” value was determined as 1560 µg/mL (≈ 3.7 mM). Besides, the “MIC (Minimum Inhibitory Concentration) PYRNTE” value against Pyrenophora teres (setting [5]) came out at 12500 µg/mL (≈ 29.6 mM). Further, the “MIC (Minimum Inhibitory Concentration) RHIZSO” value in the experiment with Rhizoctonia solani (setting [5]) was determined as 6250 µg/mL (≈ 14.8 mM). The “Disease control (% efficacy) WSN 2 da R” value with Leptosphaeria nodorum [4] (25 ppm) and with Leptosphaeria nodorum [4] (100 ppm) was 0% in each case.

As to `Fc1cccc(Cl)c1-c1c(Cl)nc2ncnn2c1N1CCC(F)(F)CC1` [Example 5, 5-chloro-6-(2-chloro-6-fluorophenyl)-7-N-(4,4-difluoropiperid-1-yl)-[1,2,4]triazolo[1,5-a]pyrimidine], the “MIC (Minimum Inhibitory Concentration) ALTESO” value against Alternaria solani (setting [5]) was less than 50 µg/mL. The “MIC (Minimum Inhibitory Concentration) BOTRCI” value with Botrytis cinerea (setting [5]) was 50000 µg/mL (≈ 124 mM). The “MIC (Minimum Inhibitory Concentration) LEPTNO” value in the experiment on Leptosphaeria nodorum [1] (setting [6]) was 12500 µg/mL (≈ 31.1 mM). For the same molecule, in the experiment on Phytophthora infestans, the “MIC (Minimum Inhibitory Concentration) PHYTIN” value is more than 100000 µg/mL. Besides, in experiment [2], the “MIC (Minimum Inhibitory Concentration) PYRIOR” value worked out at 200 µg/mL (≈ 0.497 mM). The “MIC (Minimum Inhibitory Concentration) PYRNTE” value against Pyrenophora teres (setting [5]) was 3130 µg/mL (≈ 7.78 mM). Moreover, the “MIC (Minimum Inhibitory Concentration) RHIZSO” value in the experiment on Rhizoctonia solani (setting [5]) is more than 100000 µg/mL. Besides, the “Disease control (% efficacy) WPM 2 da R” value in experiment [3] was 74% and 94% and 84%. In addition, the “Disease control (% efficacy) WLR 2 da C” value in the experiment on Puccinia recondita was 10% and 0%. The entries for the “Disease control (% efficacy) WSN 2 da R” value in the experiment with Leptosphaeria nodorum [4] (25 ppm) and in the experiment on Leptosphaeria nodorum [4] (100 ppm) were 36% and 98%, respectively.

With `FCC1CCN(c2c(-c3c(F)cc(F)cc3F)c(Cl)nc3ncnn23)CC1` [Example 6, 5-chloro-7-N-(4-fluoromethylpiperid-1-yl)-6-(2,4,6-trifluorophenyl)-[1,2,4]triazolo[1,5-a]pyrimidine], the “MIC (Minimum Inhibitory Concentration) ALTESO” value against Alternaria solani was determined as 390 µg/mL (≈ 0.976 mM). Moreover, the “MIC (Minimum Inhibitory Concentration) BOTRCI” value with Botrytis cinerea was found to be 3130 µg/mL (≈ 7.83 mM). For the same molecule, in the experiment on Leptosphaeria nodorum [1], the “MIC (Minimum Inhibitory Concentration) LEPTNO” value was more than 100000 µg/mL. In addition, the “MIC (Minimum Inhibitory Concentration) PHYTIN” value in the experiment on Phytophthora infestans is more than 100000 µg/mL. For the same molecule, the “MIC (Minimum Inhibitory Concentration) PYRIOR” value in experiment [2] turned out to be 780 µg/mL (≈ 1.95 mM). The “MIC (Minimum Inhibitory Concentration) PYRNTE” value with Pyrenophora teres came to 3130 µg/mL (≈ 7.83 mM). For the same molecule, the “MIC (Minimum Inhibitory Concentration) RHIZSO” value in the experiment with Rhizoctonia solani was more than 100000 µg/mL. Further, in the experiment on Puccinia recondita, the “Disease control (% efficacy) WLR 2 da C” value is 100% and 98%; the “Disease control (% efficacy) WLR 2 da R” value worked out at 100%. Moreover, the “Disease control (% efficacy) WSN 2 da R” value with Leptosphaeria nodorum [4] (25 ppm) is given as 63%. Moreover, the “Disease control (% efficacy) WSN 2 da R” value with Leptosphaeria nodorum [4] (100 ppm) is 99%.
